Literature values in paper PMC12500691 (Frontiers in Cellular and Infection Microbiology, 2025).

Test system: NETosis
Details: cited from earlier work

## CC[C@H](C)[C@H](NC(=O)[C@H](CCCCN)NC(=O)[C@H](CCC(=O)O)NC(=O)[C@H](CCCCN)NC(=O)[C@H](CO)NC(=O)[C@H](CCCCN)NC(=O)[C@H](CCCNC(=N)N)NC(=O)[C@H](Cc1ccccc1)NC(=O)[C@H](Cc1ccccc1)NC(=O)[C@H](CC(=O)O)NC(=O)CNC(=O)[C@H](CC(C)C)NC(=O)[C@@H](N)CC(C)C)C(=O)NCC(=O)N[C@@H](CCCCN)C(=O)N[C@@H](CCC(=O)O)C(=O)N[C@@H](Cc1ccccc1)C(=O)N[C@@H](CCCCN)C(=O)N[C@@H](CCCNC(=N)N)C(=O)N[C@H](C(=O)N[C@H](C(=O)N[C@@H](CCC(N)=O)C(=O)N[C@@H](CCCNC(=N)N)C(=O)N[C@H](C(=O)N[C@@H](CCCCN)C(=O)N[C@@H](CC(=O)O)C(=O)N[C@@H](Cc1ccccc1)C(=O)N[C@@H](CC(C)C)C(=O)N[C@@H](CCCNC(=N)N)C(=O)N[C@@H](CC(N)=O)C(=O)N[C@@H](CC(C)C)C(=O)N[C@H](C(=O)N1CCC[C@H]1C(=O)N[C@@H](CCCNC(=N)N)C(=O)N[C@H](C(=O)N[C@@H](CCC(=O)O)C(=O)N[C@@H](CO)C(=O)O)[C@@H](C)O)C(C)C)[C@@H](C)CC)C(C)C)[C@@H](C)CC [LL-37]
  effect on NETosis: promote NETosis
